From patent US6632621B1, “G protein-coupled receptor-like receptors and modulators thereof” (priority 1999, dated 2003)
Read-outs that look alike come from different tables or passages of the source. Where a SMILES comes first, the peptide text is derived from it. Where no end group is shown, it is not given here. [ ]: non-standard residue; d: D form. Tyr(3-I) = N[C@@H](Cc1ccc(O)c(I)c1)C(=O)O

Assays:
CEGPCR5 = target: T1, CEGPCR5 (Caenorhabditis elegans, UniProt Q18179); assay: [35S]GTPγS binding assay, CEGPCR5 expressed in CHO cells; type: biochemical, C. elegans
T1 sequence (Q18179 1-402): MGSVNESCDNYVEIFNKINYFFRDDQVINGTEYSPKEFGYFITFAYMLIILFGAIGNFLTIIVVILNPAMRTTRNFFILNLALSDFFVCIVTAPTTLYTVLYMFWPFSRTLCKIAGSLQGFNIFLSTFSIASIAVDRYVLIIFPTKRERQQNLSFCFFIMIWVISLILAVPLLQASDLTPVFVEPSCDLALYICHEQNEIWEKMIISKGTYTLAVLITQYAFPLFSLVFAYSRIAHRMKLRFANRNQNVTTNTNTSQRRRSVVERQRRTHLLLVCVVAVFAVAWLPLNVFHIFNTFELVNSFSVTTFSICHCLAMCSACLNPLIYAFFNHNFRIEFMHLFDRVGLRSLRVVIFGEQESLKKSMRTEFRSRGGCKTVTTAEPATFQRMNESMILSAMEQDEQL
Procedure: (§1) Recombinant pCR3.1 clones encoding invertebrate GPCR-like receptors were transformed into wild-type CHO-K1 cells and functional expression was achieved using a temperature-shift incubation protocol. The CHO-K1 cells were cultured at 37° C. in a humidified atmosphere of 5% CO2 in air in DMEM medium supplemented with 10% heat-inactivated fetal bovine serum (i.e., FBS), 10 μg/ml gentamicin, and 0.1 mM nonessential amino acids to give complete DMEM medium. Additionally, for incubations at temperatures lower than 37° C., the medium was fortified with 10 mM HEPES (pH 7.4). Cells were transfected with recombinant pCR3.1 clones containing GPCR-like receptor DNAs, using LipofectAMINE PLUS™, essentially according to the manufacturer's instructions. […] In separate plastic tubes, PLUS (20 μl/plate; Life Technologies) was added to 0.75 ml/plate of recombinant plasmid DNA in OptiMEM (5 μg/plate; Gibco/BRL—Life Technologies), mixed and incubated at room temperature for 15 minutes. Separately, LipofectAMINE (30 μl/plate) was mixed with 0.75 ml OptiMEM and added to the pre-complexed DNA/PLUS mixture and incubated at room temperature for 15 minutes. The culture medium was then replaced with serum-free transfection medium (DMEM, 5 ml/plate). The DNA-PLUS-LipofectAMINE complex was then added to the plates (1.5 ml/plate) and mixed gently into the medium, followed by a 3 hour incubation at 37° C. in 5% CO2. At this time, the medium was supplemented with complete DMEM medium containing 20% FBS (6.5 ml/plate) and incubation was continued at 37° C. in 5% CO2. After a total of 24 hours at 37° C. in 5% CO2, the medium was replaced with complete DMEM medium fortified with 10 mM HEPES (10 ml/plate) and the cells were moved to an incubator maintained at 28-30° C. in a humidified atmosphere of 5% CO2 in air. The incubation continued for an additional 24 hours, typically at the lower temperature indicated above. A plasmid encoding Green Fluorescent Protein (i.e., GFP, 4 μg/plate) was used for transient GFP expression in CHO-K1 cells to estimate the transfection yields under the same conditions as used for GPCR-like receptor polynucleotides.
(§2) To assess expression, membranes were prepared from transfected CHO-K1 cells. Transfected cells were washed once with ice-cold Dulbecco's phosphate-buffered saline (i.e., PBS), 5 ml per 10 cm plate, and the cells were scraped into 5 ml of the same buffer. Cell suspensions from multiple plates were combined and centrifuged at 500×g for 10 minutes at 4° C. The cell pellet was reconstituted in ice-cold TEE (25 mM Tris, pH 7.4, 5 mM EGTA, 5 mM EDTA). Convenient aliquots were snap-frozen in liquid nitrogen and stored at −70° C. After thawing, the cells were homogenized and centrifuged at 500×g for 5 minutes at 4° C. to pellet nuclei and unbroken cells. Tile supernatant was centrifuged at 47,000×g for 30 minutes at 4° C. The membrane pellet was washed once with TEE, resuspended in 20 mM HEPES, pH 7.4, 100 mM NaCl, 10 mM MgCl2, 1 mM EDTA (assay buffer), distributed into aliquots of 0.5-1.0 ml, and frozen in liquid nitrogen. Membrane aliquots were stored at −70° C. Membrane protein concentration was determined using the BCA Protein Assay Reagent from Pierce (Rockford, Ill.), with bovine serum albumin (i.e., BSA) as a standard.
(§3) Aliquots of cell membranes prepared as described above and stored at −70° C. were thawed, homogenized, and diluted into buffer containing 20 mM HEPES, pH 7.4, 10 mM MgCl2, 1 mM EDTA, and 100 mM NaCl at a concentration of 10-50 μg/ml. Reaction mixtures were prepared in 96-well polypropylene plate, Nunc. Twenty microliters of a 10× putative modulator compound (including but not limited to potential peptide ligands) solution or a water control (20 μl), 18.2 µM GDP (0.11 ml, 10 μM final concentration), and a membrane preparation were mixed and placed on ice. The modulator/ligand-GDP-membrane mixtures were incubated for 20 minutes at room temperature on a shaking platform and then placed on ice.

CEGPCR16 receptor = target: T2, CEGPCR16 receptor (Caenorhabditis elegans, UniProt Q9XXU4); assay: [35S]GTPγS binding assay, CEGPCR16 expressed in CHO cells; type: biochemical, C. elegans; conditions: Table 10; one range for the group of peptides; read-out: EC50 range
T2 sequence (Q9XXU4 1-365): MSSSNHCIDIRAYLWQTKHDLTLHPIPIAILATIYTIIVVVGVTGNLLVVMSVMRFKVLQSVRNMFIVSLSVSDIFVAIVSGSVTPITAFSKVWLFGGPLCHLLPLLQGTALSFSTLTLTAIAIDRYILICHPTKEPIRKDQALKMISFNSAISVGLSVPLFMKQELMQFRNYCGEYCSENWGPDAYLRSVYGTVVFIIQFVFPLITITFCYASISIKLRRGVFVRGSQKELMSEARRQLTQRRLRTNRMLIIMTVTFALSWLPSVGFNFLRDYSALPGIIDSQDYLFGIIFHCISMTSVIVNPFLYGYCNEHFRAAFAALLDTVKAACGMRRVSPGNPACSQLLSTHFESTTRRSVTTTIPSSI
Procedure: as §1, §2, §3

CEGPCR12h receptor = target: T3, CEGPCR12h receptor (Caenorhabditis elegans, UniProt Q20275); assay: [35S]GTPγS binding assay, CEGPCR12h expressed in CHO cells; type: biochemical, C. elegans
T3 sequence (Q20275 1-402): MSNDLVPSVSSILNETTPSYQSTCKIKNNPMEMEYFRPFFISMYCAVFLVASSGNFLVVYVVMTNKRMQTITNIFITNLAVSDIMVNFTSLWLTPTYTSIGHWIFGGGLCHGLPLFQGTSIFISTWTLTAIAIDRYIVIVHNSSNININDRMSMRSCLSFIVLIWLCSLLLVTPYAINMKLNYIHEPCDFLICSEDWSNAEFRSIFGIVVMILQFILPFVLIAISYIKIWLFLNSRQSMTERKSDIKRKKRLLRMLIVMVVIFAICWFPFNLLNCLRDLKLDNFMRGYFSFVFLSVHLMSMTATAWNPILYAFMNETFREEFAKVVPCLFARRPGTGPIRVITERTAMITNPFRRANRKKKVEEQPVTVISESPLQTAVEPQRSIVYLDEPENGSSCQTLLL
Procedure: as §1, §2, §3

CEGPCR4 = target: T4, CEGPCR4 (C. elegans); assay: competition binding assay, CEGPCR4/CHO membranes; IC50 range printed once for block r39-r54
T4 construct: Expressed in CHO cells; also called CEGPCR4 receptor; CEGPCR4/CHO membranes
T4 chain: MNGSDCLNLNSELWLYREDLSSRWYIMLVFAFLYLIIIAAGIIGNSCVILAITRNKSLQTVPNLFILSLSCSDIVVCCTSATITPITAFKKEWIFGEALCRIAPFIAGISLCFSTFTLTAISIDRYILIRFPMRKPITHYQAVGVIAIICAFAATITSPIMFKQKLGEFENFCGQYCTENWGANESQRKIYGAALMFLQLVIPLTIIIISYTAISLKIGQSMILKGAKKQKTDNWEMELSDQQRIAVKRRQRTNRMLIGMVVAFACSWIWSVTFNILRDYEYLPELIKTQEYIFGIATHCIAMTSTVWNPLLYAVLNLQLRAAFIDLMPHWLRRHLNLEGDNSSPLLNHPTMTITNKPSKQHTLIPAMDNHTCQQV

[1] = EC50 range, Table 9, one range for the group of peptides
[2] = EC50 range, Table 11, one range for the group, results apply to all CEGPCR12 isoforms

Molecule: SDRNFLRF-NH2 [SDRNFLRF-NH2]
- EC50 (CEGPCR5; [1]): 80 to 800 nM

Molecule: DFDGAMPGVLRF-NH2 [DFDGAMPGVLRF-NH2]
- EC50 (CEGPCR16 receptor): 700 to 4600 nM

Molecule: EAEEPLGTMRF-NH2 [EAEEPLGTMRF-NH2]
- EC50 (CEGPCR16 receptor): 60 to 300 nM

Molecule: EDGNAPFGTMRF-NH2 [EDGNAPFGTMRF-NH2]
- EC50 (CEGPCR16 receptor): 60 to 300 nM

Molecule: TDVDHVFLRF-NH2 [TDVDHVFLRF-NH2]
- EC50 (CEGPCR12h receptor; [2]): 1500 to 3000 nM

Molecule: KPNFLRY-NH2 [KPNFLRY-NH2]
- EC50 (CEGPCR5; [1]): 1000 to 8000 nM

Molecule: SPLGTMRF-NH2 [SPLGTMRF-NH2]
- EC50 (CEGPCR16 receptor): 60 to 300 nM

Molecule: DPSFLRF-NH2 [DPSFLRF-NH2]
- EC50 (CEGPCR5): 80 to 800 nM

Molecule: YGLGPRPLRF-NH2 [YGLGPRPLRF-NH2]
- EC50 (CEGPCR5; [1]): 80 to 800 nM

Molecule: EIPGVLRF-NH2 [EIPGVLRF-NH2]
- EC50 (CEGPCR16 receptor): 700 to 4600 nM

Molecule: CC(C)C[C@H](NC(=O)[C@H](Cc1ccccc1)NC(=O)[C@@H](NC(=O)[C@H](Cc1c[nH]cn1)NC(=O)[C@H](CC(=O)O)NC(=O)[C@@H](NC(=O)[C@H](CC(=O)O)NC(=O)[C@@H]1CCCN1C(=O)[C@@H](N)Cc1ccc(O)c(I)c1)C(C)C)C(C)C)C(=O)N[C@@H](CCCNC(=N)N)C(=O)N[C@@H](Cc1ccccc1)C(N)=O [[I]Y^0PDVDHVFLRF-NH2] (H-[Tyr(3-I)]PDVDHVFLRF-NH2)
- EC50 (CEGPCR12h receptor; EC50): 478 nM
- EC50 (CEGPCR12h receptor; [2]): 300 to 500 nM

Molecule: GVLRF-NH2 (synthetic) [GVLRF-NH2]
- binding result (CEGPCR4): binds

Molecule: Ac-GVLRF-NH2 (synthetic) [Ac-GVLRF-NH2]
- binding result (CEGPCR4): binds

Molecule: YGVLRF-NH2 (synthetic) [Y-GVLRF-NH2]
- binding result (CEGPCR4): binds

Molecule: PGVLRF-NH2 (synthetic) [PGVLRF-NH2]
- binding result (CEGPCR4): binds

Molecule: VPGVLRF-NH2 (synthetic) [VPGVLRF-NH2]
- binding result (CEGPCR4): binds

B1: 3-Iodo-Y-PGVLRF-NH2 (peptide)
peptide: [Tyr(3-I)]PGVLRF-NH2
modifications: N-terminus assumed
SMILES: CC(C)C[C@H](NC(=O)[C@@H](NC(=O)CNC(=O)[C@@H]1CCCN1C(=O)[C@@H](N)Cc1ccc(O)c(I)c1)C(C)C)C(=O)N[C@@H](CCCNC(=N)N)C(=O)N[C@@H](Cc1ccccc1)C(N)=O
notes: synthetic
- binding result (CEGPCR4): binds

Molecule: YPGVLRF-NH2 (synthetic) [Y-PGVLRF-NH2]
- binding result (CEGPCR4): binds

Molecule: Ac-VPGVLRF-NH2 (synthetic) [Ac-VPGVLRF-NH2]
- binding result (CEGPCR4): binds
